These results are taken from US20060166996A1, “Phthalazine derivatives as phosphodiesterase 4 inhibitors” (Zambon Group S.P.A., priority 2002, published 2006).

Read-outs that look alike come from different tables or passages of the source.

For one series, the system named is TNFα release. Description: TNFα release in whole human blood (LPS, ELISA). In kind it is cell-based. On the procedure:
The blood samples obtained from healthy volunteers were collected in heparinised tubes and diluted 1:5 with RPMI 1640 without serum addition.
The test was carried out in 96-well plates and samples containing 150 μl of diluted blood and 150 μl of RPMI 1640 with control vehicle or with different concentration of the compounds of the present invention were incubated at 37° C. in a 5% CO2 humidified atmosphere for 30 minutes.
The whole blood in the assay samples was diluted 1:10 (v/v).
The samples were stimulated with LPS (lipopolysaccharide from E. Coli: serotype B 0:55, Sigma) 0.25 μg/ml and incubated for 24 hours.
After centrifugation, the supernatants were collected for TNFα levels determination by a commercially available ELISA kit (Biosource).
The test objects were dissolved in DMSO at 10^−2 M and further diluted in RPMI 1640. […] Each compound was tested in duplicate at nine concentrations and the data obtained were further confirmed using blood samples from different donors.
The percent inhibition of TNFα production at each concentration was calculated and IC50 was determined using a 4-parameters logistic equation (Origin calculation program, Microcal Software Inc.)
For orientation: ELISA stands for enzyme-linked immunosorbent assay.

A further series has as its target PDE 3 (Homo sapiens, UniProt Q14432). Description: PDE 3 enzyme inhibition (SPA). In kind it is biochemical, healthy volunteers. To be noted: PDE 3 from platelet rich plasma; 3H-cAMP; read-out: PDE 3-5 IC 50 (nM): PDE 3. On the procedure: (§1) PDE 3 and PDE 5 enzymes were purified from platelet rich plasma (PRP) obtained from healthy volunteers.
(§2) PDE 3 and PDE 5 enzymes were purified according to Simpson A. W. M. et al. (Biochem. Pharmacol. 1988, 37, 2315-2320) partially modified for the FPLC technique (Fast Protein Liquid Chromatography).
(§3) The PRP was diluted 1:2 in saline solution and centrifuged at 2000×g for 15 minutes at room temperature.
(§4) The pellet was suspended in 10 ml of lysis solution (155 mM NH4Cl, 10 mM KHCO3 and 0.1 mM Na2EDTA pH 7.4) and incubated for 10 minutes on ice-bath to remove erythrocyte contamination.
(§5) After centrifugation, platelets were suspended in 10 ml of 20 mM Bis-Tris, 2 mM EDTA, 5 mM β-mercaptoethanol, 50 mM sodium acetate, 2 mM benzamidine) and homogenised with a Polytron homogeniser on ice-bath.
(§6) The homogenate was centrifuged and the supernatant applied to a UNO Q12 column connected to a Biologic Chromatography system (FPLC, BIO RAD).
(§7) PDE 3 and PDE 5 enzymes were eluted with a linear 0.05-1M sodium acetate gradient and the elution fractions were collected for PDE enzymes activity assay.
(§8) Fractions containing PDE activities were pooled, dialysed overnight against distilled water and concentrated 10 times by an Amicon filtration system (using YM10 membrane filter). Ethylene glycol was added to a final concentration of 30% v/v and the solution stored at −20° C.
(§9) Enzymatic activity was stable for several weeks under these conditions.
(§10) Enzymes activity assay were performed using Scintillation Proximity Assay (SPA) Amersham kit consisting of tracer ^3H-cAMP for PDE3 or ^3H-cGMP for PDE5, PDE assay buffer (10×solution: 500 mM TRIS/HCl pH 7.5, 83 mM MgCl2 and 17 mM EGTA) and Yttrium SPA PDE beads (containing 18 mM zinc sulphate).
(§11) The radioactivity of the beads was measured using a scintillation counter (Packard model MINAXI β TRI-CARB 4000 SERIES).

Another series addresses PDE 5 (Homo sapiens, UniProt O76074). Description: PDE 5 enzyme inhibition (SPA). In kind it is biochemical, healthy volunteers. To be noted: PDE 5 from platelet rich plasma; 3H-cGMP; read-out: PDE 3-5 IC 50 (nM): PDE 5. On the procedure:
as §1, §2, §3, §4, §5, §6, §7, §8, §9, §10, §11

Series [1] is described as follows: Pharmacokinetic study in rats. To be noted: for PK rat t/2: 10 mg/kg oral or 3 mg/kg intravenously, mixture of 3-5 compounds; for bioavailability: plasma, rat, oral 10 mg/kg in N-methylglucosamine/PG/Tween 80 (physiologic vehicle), read-out: PK rat % F. In kind it is in vivo. The protocol: A mixture containing 3-5 compounds according to what described by Ward K. W. et al. (Drug Metab. Dispos. 2001, vol. 29, 82-88) was administered to rats at 10 mg/kg dosage by oral route (1 mg/ml in 77% N-methylglucosamine 25 mM and 20% PG containing 3% Tween 80) or 3 mg/kg intravenously (3 mg/ml in 15% DMSO/85% PEG).
The animals received only one treatment per study.
The rats permanently implanted with jugular catheter (Silastic®, Dow Corning) were treated with the test mixture by an intravenous bolus (via implanted catheter) or by oral gavage. Blood samples were collected from the jugular catheter at different times up to 6 h after administration.
Plasma samples were analyzed after protein precipitation by two volumes of CH3CN and plasma concentrations were determined by liquid chromatography/mass spectrometry.
Being poor the solubility of the compounds comprised in the general formula of the international patent application WO 00/05218, it was necessary to performe the pharmacokinetic studies using a 15% DMSO/85% PEG solution of the compounds both for intravenous and for oral route, i.e. by an absolutely non physiological vehicle.

The mark [2] stands for this setting: whole human blood diluted 1:10, LPS 0.25 μg/ml, 24 hours, read-out: IC 50 (nM) h-WB 1:10.
The mark [3] stands for this setting: h-WB (whole human blood), LPS stimulated, read-out: IC 50 (nM) h-WB.

Sequence of PDE 3 (Q14432 674-1093 limits assumed): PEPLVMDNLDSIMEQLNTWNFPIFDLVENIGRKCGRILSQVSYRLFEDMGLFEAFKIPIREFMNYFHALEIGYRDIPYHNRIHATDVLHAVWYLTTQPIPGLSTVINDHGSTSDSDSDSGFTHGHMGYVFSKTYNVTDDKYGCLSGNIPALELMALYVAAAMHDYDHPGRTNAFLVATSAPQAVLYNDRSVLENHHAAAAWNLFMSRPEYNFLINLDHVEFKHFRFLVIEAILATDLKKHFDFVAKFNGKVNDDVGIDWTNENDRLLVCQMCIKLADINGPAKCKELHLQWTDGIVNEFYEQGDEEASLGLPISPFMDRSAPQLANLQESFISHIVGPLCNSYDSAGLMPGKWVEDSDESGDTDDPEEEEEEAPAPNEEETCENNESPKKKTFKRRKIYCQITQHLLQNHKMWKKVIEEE

For `COc1ccc2c(Cc3c(Cl)cncc3Cl)nnc(-c3sccc3C(=O)O)c2c1` [Compound 10, 2-[4-(3,5-dichloro-pyridin-4-ylmethyl)-7-methoxy-phthalazin-1-yl]-thiophene-3-carboxylic Acid], the IC50 is 18000 nM with TNFα release (setting [2]), > 10000 nM on PDE 3 and > 10000 nM on PDE 5. Besides, the “PK rat t/2” value in series [1] stood at 21 min. Besides, the bioavailability in series [1] is 7%.
With `COc1ccc2c(Cc3c(Cl)cncc3Cl)nnc(-c3cccc(C(=O)O)c3)c2c1` [Compound 2, 3-[4-(3,5-dichloro-pyridin-4-ylmethyl)-7-methoxy-phthalazin-1-yl]-benzoic Acid], the IC50 in the series with TNFα release (setting [3]) is 33000 nM; with TNFα release (setting [2]), 2470 nM; at PDE 3, > 10000 nM; on PDE 5, > 10000 nM. Also, the “PK rat t/2” value in series [1] was 132 min. Further, in series [1], the bioavailability came out at 43%.
Turning to `O=C(O)c1cccc(-c2nnc(Cc3c(Cl)cncc3Cl)c3ccc(OC(F)F)cc23)c1` [Compound 8, 3-[4-(3,5-dichloro-pyridin-4-ylmethyl)-7-difluoromethoxy-phthalazin-1-yl]-benzoic Acid], the IC50 with TNFα release (setting [3]) is 14300 nM; in the series with TNFα release (setting [2]), 1230 nM; at PDE 3, > 10000 nM; on PDE 5, > 10000 nM. Also, in series [1], the “PK rat t/2” value is 66 min. For the same compound, the bioavailability in series [1] is 41%.
